{
  "source": "the CheMixHub viscosity set",
  "assay": "xn = mol fraction of the nth substance listed",
  "conditions": "101 kPa",
  "note": "± gives the uncertainty stated by the source.",
  "data": [
    {"molecule": "O=S1(=O)CCCC1", "note": "+ O", "values": [
      {"measurement": "viscosity", "setting": "303.15 K, x1 = 0.3022", "result": "2.856 ± 0.074", "unit": "mPa·s"},
      {"measurement": "viscosity", "setting": "303.15 K, x1 = 0.4496", "result": "3.865 ± 0.1", "unit": "mPa·s"},
      {"measurement": "viscosity", "setting": "303.15 K, x1 = 0.5", "result": "3.797 ± 0.05", "unit": "mPa·s"},
      {"measurement": "viscosity", "setting": "303.15 K, x1 = 0.6077", "result": "4.963 ± 0.13", "unit": "mPa·s"},
      {"measurement": "viscosity", "setting": "303.15 K, x1 = 0.6106", "result": "5.004 ± 0.13", "unit": "mPa·s"},
      {"measurement": "viscosity", "setting": "303.15 K, x1 = 0.749", "result": "6.085 ± 0.16", "unit": "mPa·s"},
      {"measurement": "viscosity", "setting": "303.15 K, x1 = 0.75", "result": "5.994 ± 0.077", "unit": "mPa·s"},
      {"measurement": "viscosity", "setting": "303.15 K, x1 = 0.7813", "result": "6.555 ± 0.17", "unit": "mPa·s"},
      {"measurement": "viscosity", "setting": "303.15 K, x1 = 0.85", "result": "7.236 ± 0.092", "unit": "mPa·s"},
      {"measurement": "viscosity", "setting": "313.15 K, x1 = 0.0147", "result": "0.7245 ± 0.019", "unit": "mPa·s"},
      {"measurement": "viscosity", "setting": "313.15 K, x1 = 0.02077", "result": "0.74 ± 0.22", "unit": "mPa·s"},
      {"measurement": "viscosity", "setting": "313.15 K, x1 = 0.0208", "result": "0.753 ± 0.02", "unit": "mPa·s"},
      {"measurement": "viscosity", "setting": "313.15 K, x1 = 0.0701", "result": "1.014 ± 0.026", "unit": "mPa·s"},
      {"measurement": "viscosity", "setting": "313.15 K, x1 = 0.07103", "result": "1.01 ± 0.3", "unit": "mPa·s"},
      {"measurement": "viscosity", "setting": "313.15 K, x1 = 0.0744", "result": "1.029 ± 0.027", "unit": "mPa·s"},
      {"measurement": "viscosity", "setting": "313.15 K, x1 = 0.0958", "result": "1.152 ± 0.03", "unit": "mPa·s"},
      {"measurement": "viscosity", "setting": "313.15 K, x1 = 0.09929", "result": "1.15 ± 0.35", "unit": "mPa·s"},
      {"measurement": "viscosity", "setting": "313.15 K, x1 = 0.1435", "result": "1.414 ± 0.037", "unit": "mPa·s"},
      {"measurement": "viscosity", "setting": "313.15 K, x1 = 0.1586", "result": "1.484 ± 0.039", "unit": "mPa·s"},
      {"measurement": "viscosity", "setting": "313.15 K, x1 = 0.1924", "result": "1.681 ± 0.044", "unit": "mPa·s"},
      {"measurement": "viscosity", "setting": "313.15 K, x1 = 0.25", "result": "1.928 ± 0.025", "unit": "mPa·s"},
      {"measurement": "viscosity", "setting": "313.15 K, x1 = 0.29", "result": "2.219 ± 0.058", "unit": "mPa·s"},
      {"measurement": "viscosity", "setting": "313.15 K, x1 = 0.3022", "result": "2.267 ± 0.059", "unit": "mPa·s"},
      {"measurement": "viscosity", "setting": "313.15 K, x1 = 0.4496", "result": "3.059 ± 0.08", "unit": "mPa·s"},
      {"measurement": "viscosity", "setting": "313.15 K, x1 = 0.5", "result": "3.212 ± 0.041", "unit": "mPa·s"},
      {"measurement": "viscosity", "setting": "313.15 K, x1 = 0.6077", "result": "3.923 ± 0.1", "unit": "mPa·s"},
      {"measurement": "viscosity", "setting": "313.15 K, x1 = 0.6106", "result": "3.962 ± 0.11", "unit": "mPa·s"},
      {"measurement": "viscosity", "setting": "313.15 K, x1 = 0.749", "result": "4.807 ± 0.12", "unit": "mPa·s"},
      {"measurement": "viscosity", "setting": "313.15 K, x1 = 0.75", "result": "4.743 ± 0.064", "unit": "mPa·s"},
      {"measurement": "viscosity", "setting": "313.15 K, x1 = 0.7813", "result": "5.182 ± 0.14", "unit": "mPa·s"},
      {"measurement": "viscosity", "setting": "313.15 K, x1 = 0.85", "result": "5.24 ± 0.072", "unit": "mPa·s"},
      {"measurement": "viscosity", "setting": "323.15 K, x1 = 0.0147", "result": "0.6051 ± 0.016", "unit": "mPa·s"},
      {"measurement": "viscosity", "setting": "323.15 K, x1 = 0.02077", "result": "0.63 ± 0.19", "unit": "mPa·s"},
      {"measurement": "viscosity", "setting": "323.15 K, x1 = 0.0208", "result": "0.629 ± 0.017", "unit": "mPa·s"},
      {"measurement": "viscosity", "setting": "323.15 K, x1 = 0.04267", "result": "0.7 ± 0.21", "unit": "mPa·s"},
      {"measurement": "viscosity", "setting": "323.15 K, x1 = 0.0701", "result": "0.841 ± 0.022", "unit": "mPa·s"},
      {"measurement": "viscosity", "setting": "323.15 K, x1 = 0.07103", "result": "0.84 ± 0.25", "unit": "mPa·s"},
      {"measurement": "viscosity", "setting": "323.15 K, x1 = 0.0744", "result": "0.8536 ± 0.022", "unit": "mPa·s"},
      {"measurement": "viscosity", "setting": "323.15 K, x1 = 0.0958", "result": "0.9537 ± 0.025", "unit": "mPa·s"},
      {"measurement": "viscosity", "setting": "323.15 K, x1 = 0.09929", "result": "0.96 ± 0.29", "unit": "mPa·s"},
      {"measurement": "viscosity", "setting": "323.15 K, x1 = 0.1435", "result": "1.165 ± 0.03", "unit": "mPa·s"},
      {"measurement": "viscosity", "setting": "323.15 K, x1 = 0.1586", "result": "1.221 ± 0.032", "unit": "mPa·s"},
      {"measurement": "viscosity", "setting": "323.15 K, x1 = 0.1924", "result": "1.379 ± 0.036", "unit": "mPa·s"},
      {"measurement": "viscosity", "setting": "323.15 K, x1 = 0.29", "result": "1.814 ± 0.047", "unit": "mPa·s"},
      {"measurement": "viscosity", "setting": "323.15 K, x1 = 0.3022", "result": "1.85 ± 0.048", "unit": "mPa·s"},
      {"measurement": "viscosity", "setting": "323.15 K, x1 = 0.4496", "result": "2.486 ± 0.065", "unit": "mPa·s"},
      {"measurement": "viscosity", "setting": "323.15 K, x1 = 0.6077", "result": "3.184 ± 0.083", "unit": "mPa·s"},
      {"measurement": "viscosity", "setting": "323.15 K, x1 = 0.6106", "result": "3.217 ± 0.084", "unit": "mPa·s"},
      {"measurement": "viscosity", "setting": "323.15 K, x1 = 0.749", "result": "3.896 ± 0.1", "unit": "mPa·s"},
      {"measurement": "viscosity", "setting": "323.15 K, x1 = 0.7813", "result": "4.197 ± 0.11", "unit": "mPa·s"}
    ]}
  ]
}
